From patent US20230106506A1, “NOVEL PqsR INVERSE AGONISTS” (Helmholtz-Zentrum Fur Infektionsforschung GmbH, priority 2020, published 2023) come the findings set out here.

Series [1] is described as follows: Kinetic turbidimetric aqueous solubility. Format: physicochemical. The settings on record: aqueous buffer, kinetic from dmso stock; PBS buffer, final DMSO 2%, absorbance 620 nm; read-out: Kinetic Turbidimetric Aqueous Solubility at room temperature for 5 min. On the procedure: Kinetic Turbidimetric Aqueous Solubility at room temperature for 5 min. […] Data was analyzed by fitting a four parameter sigmoidal function to the measured and normalized absorbances and AUC calculation providing access to Log S (decadic logarithm of the solubility).

Series [2] can be described thus: Metabolic stability in mouse liver microsomes (MLM). Format: in vitro ADME. The following applies: 1 μM compound, 0.5 mg/mL MLM, 1 mM NADPH, 37° C., read-out: half-life (t1/2) towards MLM. How it is done: For the evaluation of phase I metabolic stability, the compound (1 μM) was incubated with 0.5 mg/mL MLM (Corning) and 1 mM NADPH at 37° C. for 0, 5, 10, 15 and 30 min. The metabolic stability of Verapamil, Diphenhydramine and Benzydamine (1 μM each) were determined in parallel to confirm the enzymatic activity of the MLM. The incubation was stopped by addition of 2 volumes of acetonitrile containing internal standard (1 μM Leucine Enkephaline). Samples were centrifuged (15 min, 3,500 rpm). Concentration of the remaining test compound at the different time points was analyzed by HPLC-MS/MS and used to determine half-life (t1/2).
In general terms: Microsomes from liver hold many membrane-bound enzymes, among them those of drug oxidation.

For series [3], the system named is P. aeruginosa pyocyanin production. Kind of series: Pyocyanin assay. Format: cell-based, P. aeruginosa strain PA14. The following applies: Pseudomonas aeruginosa, PA14, 16 h, read-out: IC50-value towards pyocyanin production. On the procedure: Inhibition of P. aeruginosa pyocyanin production by compounds was determined photometrically as described before. In short, an overnight culture of PA14 in PPGAS medium was washed, diluted in medium to a start OD600 of 0.02, and incubated for 16 h (37° C., 200 rpm, relative humidity 75%) in the presence of test compounds. Then, cultures were extracted with chloroform and re-extracted with 0.2 M HCl. Protonated red colored pyocyanin was determined by measuring OD520 and normalizing to OD600.

On to `CC(C)Oc1ccc(-c2ncc(CNc3cc(-c4ccc(C#N)nc4)nc(C(F)(F)F)c3)s2)cc1` [Compound 68, 4-(((2-(4-Isopropoxyphenyl)thiazol-5-yl)methyl)amino)-6-(trifluoromethyl)-[2,3′-bipyridine]-6′-carbonitrile], for which the solubility at 5 min in series [1] is more than 25 µM. For the same compound, the half-life at 1 µM in series [2] was more than 100 min. Besides, the IC50 in series [3] fell in the range of 201 to 500 nM.
For `Fc1ccccc1Oc1ccc(-c2ncc(CNc3cc(-c4cn[nH]c4)nc(C(F)(F)F)c3)cn2)cc1` [Compound 51, N-((2-(4-(2-Fluorophenoxy)phenyl)pyrimidin-5-yl)methyl)-2-(1H-pyrazol-4-yl)-6-(trifluoromethyl)pyridin-4-amine] the same measures were more than 50 µM, more than 100 min and 101 to 200 nM.
The corresponding values for `CC(C)Oc1ccc(-c2ncc(CNc3cc(-n4cncn4)nc(C(F)(F)F)c3)cn2)cc1Cl` [Compound 60, N-((2-(3-Chloro-4-isopropoxyphenyl)pyrimidin-5-yl)methyl)-2-(1H-1,2,4-triazol-1-yl)-6-(trifluoromethyl)pyridin-4-amine] are more than 10 µM, 61 to 100 min and 101 to 200 nM.
The corresponding values for `CC(C)Oc1ccc(-c2ccc(CNc3cc(-c4cn[nH]c4)nc(C(F)(F)F)c3)nc2)cc1` [Compound 20, N-((5-(4-Isopropoxyphenyl)pyridin-2-yl)methyl)-2-(1H-pyrazol-4-yl)-6-(trifluoromethyl)pyridin-4-amine] are more than 10 µM, more than 100 min and 101 to 200 nM.
Turning to `CC(C)Oc1ccc(-c2ccc(CNc3cc(-c4cn[nH]c4)nc(C(F)(F)F)c3)nc2)cc1Cl` [Compound 24, N-((5-(3-Chloro-4-isopropoxyphenyl)pyridin-2-yl)methyl)-2-(1H-pyrazol-4-yl)-6-(trifluoromethyl)pyridin-4-amine], in series [1], the solubility at 5 min was more than 10 µM. Also, the half-life at 1 µM in series [2] was more than 100 min. In addition, the IC50 in series [3] was 201 to 500 nM.
As to `CC(C)Oc1ccc(-c2ccc(CNc3cc(-c4cn[nH]c4)nc(C(F)(F)F)c3)cn2)cc1Cl` [Compound 23, N-((6-(3-Chloro-4-isopropoxyphenyl)pyridin-3-yl)methyl)-2-(1H-pyrazol-4-yl)-6-(trifluoromethyl)pyridin-4-amine], the solubility at 5 min in series [1] is more than 25 µM. The half-life at 1 µM in series [2] is more than 100 min. Moreover, the IC50 in series [3] was in the range of 201 to 500 nM.
For `N#Cc1cc(-c2ncc(CNc3cc(-n4cncn4)nc(C(F)(F)F)c3)cn2)ccc1Cl` [Compound 39, 5-(5-(((2-(1H-1,2,4-Triazol-1-yl)-6-(trifluoromethyl)pyridin-4-yl)amino)methyl)pyrimidin-2-yl)-2-chlorobenzonitrile] the same measures were more than 10 µM, more than 100 min and 101 to 200 nM.
For `CC(C)Oc1ccc(-c2ncc(CNc3cc(-c4cc[nH]n4)nc(C(F)(F)F)c3)cn2)cc1` [Compound 31, N-((2-(4-Isopropoxyphenyl)pyrimidin-5-yl)methyl)-2-(1H-pyrazol-3-yl)-6-(trifluoromethyl)pyridin-4-amine] the same measures were more than 10 µM, more than 100 min and 201 to 500 nM.
For `Nc1ccc(Oc2ccc(-c3ncc(CNc4cc(-c5cn[nH]c5)nc(C(F)(F)F)c4)cn3)cc2)cc1` [Compound 56, N-((2-(4-(4-Aminophenoxy)phenyl)pyrimidin-5-yl)methyl)-2-(1H-pyrazol-4-yl)-6-(trifluoromethyl)pyridin-4-amine] the same measures were more than 10 µM, 61 to 100 min and 101 to 200 nM.
As to `CC(C)Oc1ccc(-c2ncc(CNc3cc(-c4cn[nH]c4)nc(C(F)(F)F)c3)cn2)cc1F` [Compound 49, N-((2-(3-Fluoro-4-isopropoxyphenyl)pyrimidin-5-yl)methyl)-2-(1H-pyrazol-4-yl)-6-(trifluoromethyl)pyridin-4-amine], in series [1], the solubility at 5 min is more than 10 µM. Further, in series [2], the half-life at 1 µM is more than 100 min. Further, in series [3], the IC50 lay in the range of 101 to 200 nM.
With `CC(C)Oc1ccc(-c2ccc(CNc3cc(-c4cn[nH]c4)nc(C(F)(F)F)c3)cn2)cc1` [Compound 21, N-((6-(4-Isopropoxyphenyl)pyridin-3-yl)methyl)-2-(1H-pyrazol-4-yl)-6-(trifluoromethyl)pyridin-4-amine], the solubility at 5 min in series [1] was more than 25 µM. Moreover, the half-life at 1 µM in series [2] is more than 100 min. Also, the IC50 in series [3] was 101 to 200 nM.
As for `FC(F)(F)c1cc(NCc2cnc(-c3ccc(Cl)cc3)nc2)cc(-c2cn[nH]c2)n1` [Compound 33, N-((2-(4-Chlorophenyl)pyrimidin-5-yl)methyl)-2-(1H-pyrazol-4-yl)-6-(trifluoromethyl)pyridin-4-amine], in series [1], the solubility at 5 min is more than 10 µM. Besides, the half-life at 1 µM in series [2] was in the range of 61 to 100 min. For the same compound, the IC50 in series [3] lay within 201 to 500 nM.
In the case of `CC(C)Oc1ccc(-c2cnc(CNc3cc(-c4cn[nH]c4)nc(C(F)(F)F)c3)cn2)cc1` [Compound 27, N-((5-(4-Isopropoxyphenyl)pyrazin-2-yl)methyl)-2-(1H-pyrazol-4-yl)-6-(trifluoromethyl)pyridin-4-amine], the solubility at 5 min in series [1] was more than 25 µM. For the same compound, the half-life at 1 µM in series [2] was more than 100 min. Besides, the IC50 in series [3] was 101 to 200 nM.
For `CC(C)Oc1ccc(-c2ccc(CNc3cc(-c4cn[nH]c4)nc(C(F)(F)F)c3)nn2)cc1Cl` [Compound 58, N-((6-(3-Chloro-4-isopropoxyphenyl)pyridazin-3-yl)methyl)-2-(1H-pyrazol-4-yl)-6-(trifluoromethyl)pyridin-4-amine] the same measures were more than 25 µM, more than 100 min and 101 to 200 nM.
As for `FC(F)(F)c1cc(NCc2nc3cc(Oc4ccccc4)ccc3[nH]2)cc(-n2ccnc2)n1` [Compound 61, 2-(1H-imidazol-1-yl)-N-((5-phenoxy-1H-benzo[d]imidazol-2-yl)methyl)-6-(trifluoromethyl)pyridin-4-amine], the solubility at 5 min in series [1] is more than 10 µM. For the same compound, the half-life at 1 µM in series [2] lay within 30 to 60 min. The IC50 in series [3] is 101 to 200 nM.
Consider `FC(F)(F)Oc1ccc(-c2ncc(CNc3cc(-c4cn[nH]c4)nc(C(F)(F)F)c3)cn2)cc1` [Compound 55, 2-(1H-Pyrazol-4-yl)-N-((2-(4-(trifluoromethoxy)phenyl)pyrimidin-5-yl)methyl)-6-(trifluoromethyl)pyridin-4-amine], for which the solubility at 5 min in series [1] was more than 10 µM. Further, the half-life at 1 µM in series [2] is more than 100 min. Further, the IC50 in series [3] was 201 to 500 nM.
As to `FC(F)(F)c1cc(NCc2cnc(-c3ccc(Cl)c(Cl)c3)nc2)cc(-c2cn[nH]c2)n1` [Compound 35, N-((2-(3,4-Dichlorophenyl)pyrimidin-5-yl)methyl)-2-(1H-pyrazol-4-yl)-6-(trifluoromethyl)pyridin-4-amine], the solubility at 5 min in series [1] is more than 10 µM. The half-life at 1 µM in series [2] is more than 100 min. In addition, the IC50 in series [3] was 101 to 200 nM.
The corresponding values for `CC(C)Oc1ccc(-c2cnc(CNc3cc(-c4cn[nH]c4)nc(C(F)(F)F)c3)cn2)cc1Cl` [Compound 57, N-((5-(3-Chloro-4-isopropoxyphenyl)pyrazin-2-yl)methyl)-2-(1H-pyrazol-4-yl)-6-(trifluoromethyl)pyridin-4-amine] are more than 25 µM, more than 100 min and 101 to 200 nM.
As to `Fc1cc(-c2ncc(CNc3cc(-c4cn[nH]c4)nc(C(F)(F)F)c3)cn2)ccc1Cl` [Compound 34, N-((2-(4-Chloro-3-fluorophenyl)pyrimidin-5-yl)methyl)-2-(1H-pyrazol-4-yl)-6-(trifluoromethyl)pyridin-4-amine], in series [1], the solubility at 5 min was more than 10 µM. Moreover, in series [2], the half-life at 1 µM was more than 100 min. In series [3], the IC50 is 201 to 500 nM.
The corresponding values for `CC(C)Oc1ccc(-c2cnc(CNc3cc(-c4cn[nH]c4)nc(C(F)(F)F)c3)nc2)cc1Cl` [Compound 47, N-((5-(3-Chloro-4-isopropoxyphenyl)pyrimidin-2-yl)methyl)-2-(1H-pyrazol-4-yl)-6-(trifluoromethyl)pyridin-4-amine] are more than 10 µM, 30 to 60 min and 201 to 500 nM.
For `CC(C)Oc1ccc(-c2ncc(CNc3cc(-n4ccnc4)nc(C(F)(F)F)c3)cn2)cc1Cl` [Compound 30, N-((2-(3-Chloro-4-Isopropoxyphenyl)pyrimidin-5-yl)methyl)-2-(1H-imidazol-1-yl)-6-(trifluoromethyl)pyridin-4-amine] the same measures were more than 10 µM, more than 100 min and 101 to 200 nM.
For `CC(C)Oc1ccc(-c2ncc(CNc3cc(-c4cnc[nH]4)nc(C(F)(F)F)c3)cn2)cc1` [Compound 41, 2-(1H-Imidazol-5-yl)-N-((2-(4-isopropoxyphenyl)pyrimidin-5-yl)methyl)-6-(trifluoromethyl)pyridin-4-amine], in series [1], the solubility at 5 min was more than 10 µM. Also, the half-life at 1 µM in series [2] is more than 100 min.

As usually defined, the solubility is the dissolved amount per volume that the medium holds. Broadly, the IC50 is the concentration needed to halve the response being measured.
